Our source for the GI50 and TGI values is PubChem BioAssay (NCI).

Where “and” joins values, the source holds several entries; their conditions need not be identical. Equal values may be shown once.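 Briefly, cells in 96-well plates were exposed to five compound concentrations for 48 h, and endpoints were estimated by linear interpolation. Abbreviation: GI50, concentration required for 50% inhibition of growth. The concentration for full growth arrest is given as TGI.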 Where only a bound is given, the exact number is not on record here.

For orientation: GI50 means the concentration at which growth is held to half of that of the control. As a reminder, the TGI is the concentration giving total growth inhibition. A higher TGI goes with lower sensitivity of the cells.

What all share (assay): DTP human tumour cell line panel, 48 h
Assay [1] has as its system OVCAR-3 ovarian.
The subject of assay [2] is CCRF-CEM leukemia.
Assay [3] relates to EKVX NSCLC.
The subject of assay [4] is MDA-MB-231 breast.
Assay [5] has as its system HCT-15 colon.
Assay [6] has as its system 786-0 renal.
Assay [7] has as its system HT29 colon.
Assay [8] concerns HOP-92 NSCLC.
In assay [9] the test system is T-47D breast.
Assay [10] deals with NCI-H522 lung.

`C/C(=C\c1ccn(-c2ccc(N)cc2)n1)[C@@H]1C[C@@H]2O[C@]2(C)CCC[C@H](C)[C@H](O)[C@@H](C)C(=O)C(C)(C)[C@@H](O)CC(=O)O1`: the concentration for 50% growth inhibition (GI50) in assay [1] was 0.0175 µM; in assay [2] it was 0.0338 µM; in assay [3], 0.256 µM; in assay [4], 0.252 µM; in assay [5], 0.0297 µM; in assay [6] it was 0.174 µM. The GI50 in [7] was 0.0187 µM; in [9] it was 0.028 µM; in [10] it was 0.0356 µM. For the same compound, the total growth inhibition concentration (TGI) was 1.6 µM in assay [1]; more than 50 µM in assay [2]; more than 50 µM in assay [3]; more than 50 µM in [4]; more than 50 µM in assay [5]; more than 50 µM in assay [6]. The TGI is more than 50 µM in [7], more than 50 µM in [8], more than 50 µM in assay [9] and 0.342 µM in assay [10].

With `CC(C)=CCC/C(C)=C/CC/C(=C/COP(=O)(OCc1ccc([N+](=O)[O-])o1)N(C)CCCCCl)C(C)(C)C` (configuration not stated), the GI50 in assay [1] is 1.94 µM; in assay [2], 0.0571 µM; in [3], 6.48 µM; in [5], 1.66 µM; in assay [6], 2.53 µM; in assay [7] it was 12.5 µM. Also, the GI50 was 12.8 µM in assay [8], 16.4 µM in [9] and 2.66 µM in assay [10]. Further, the TGI in [1] was 3.66 µM; in assay [2], 27.4 µM; in [3], 22.4 µM; in [4] it was 1.03 µM; in assay [5], 6.79 µM; in assay [6], 8.18 µM. Further, the TGI in [7] worked out at 38.9 µM; in [8], 25.4 µM; in assay [9], 51.5 µM; in [10], 10 µM.

For `Cn1cnc2c(NCc3ccccc3)nc(NCCO)nc21`, the GI50 was 33 µM and 115 µM in assay [1]; 143 µM in [2]; 57 µM in assay [3]; 116 µM in assay [4]; 129 µM in assay [5]; 105 µM in [6]. The GI50 in [7] was 83.6 µM; in assay [8], 138 µM; in assay [9] it was 206 µM; in assay [10], 90.6 µM. The TGI in [1] was more than 406 µM; in [2] it was 98.2 µM and 353 µM; in [3], 170 µM; in [4], 479 µM; in assay [5] it was more than 500 µM; in assay [6], more than 435 µM. For the same compound, the TGI was 336 µM in [7]; > 90.2 µM and 375 µM in [8]; more than 408 µM in [9]; 322 µM in assay [10].

Turning to `Cc1ccc(C(=O)NC2CCCCC2)cc1-c1ccc(C(=O)NCC2CC2)cc1`, the GI50 is more than 23 µM in assay [1]; more than 25 µM in [2]; more than 19.4 µM in assay [3]; more than 25 µM in [4]; more than 25 µM in assay [5]; more than 25 µM in [6]. Besides, the GI50 in assay [7] is more than 25 µM; in [8], 6.02 µM; in assay [9] it was 9.51 µM; in [10], 13.5 µM. Moreover, the TGI in [1], in [2], in assay [3], in assay [4], in assay [5] and in [6] was more than 25 µM each time. For the same compound, the TGI in [7], in assay [8], in assay [9] and in assay [10] was more than 25 µM each time.

For the compound `CO[C@H]1CC[C@@]2(C)C(=CC[C@H]3[C@@H]4C[C@H](O)C[C@@]4(C)CC[C@@H]32)C1`, the GI50 is 2.47 µM in assay [1]; 3.05 µM in assay [2]; 6.85 µM in assay [3]; 4.97 µM in assay [4]; 5.04 µM in assay [5]; 11.7 µM in [6]. Besides, the GI50 in [7] is 3.59 µM; in assay [8], 1.38 µM; in assay [9], 8.33 µM; in assay [10] it was 3.96 µM. The total growth inhibition concentration (TGI) is 5.63 µM in assay [1]; 19.1 µM in assay [2]; 29 µM in [3]; 24.7 µM in assay [4]; 23.2 µM in [5]; 37.7 µM in [6]. Besides, the TGI in [7] was found to be 12.4 µM; in assay [8] it was 18.1 µM; in assay [9], 31.8 µM; in [10], 15.5 µM.

Turning to `Cc1ccc(NC(=O)c2ccnc(N3CCCC3)c2)cc1-c1ccc(C(=O)NCC2CC2)cc1`, the GI50 in [1] was more than 25 µM; in [2], more than 25 µM; in assay [3], more than 25 µM; in assay [4], 10 µM; in assay [5] it was more than 25 µM; in assay [6], more than 25 µM. In addition, the GI50 in assay [7] was more than 25 µM; in [8], 8.2 µM; in assay [9], more than 13.5 µM; in assay [10], more than 25 µM. Moreover, the TGI in [1], in [2], in [3], in assay [4], in [5] and in [6] was more than 25 µM throughout. Besides, the TGI in assay [7], in assay [8], in [9] and in [10] was more than 25 µM each time.

In the case of `O=C1C=CC2(C=C1)CCN=c1c(O)c3c(c(O)c12)=NC=N3`, the TGI in assay [1] is 25 µM and > 100 µM; in assay [2] it was more than 100 µM; in assay [3] it was 31.7 µM and > 100 µM; in assay [4] it was 31.8 µM and > 100 µM; in assay [5], 29.9 µM and > 100 µM; in [6], 32.1 µM and > 100 µM. For the same compound, the TGI in assay [7] was 47.3 µM and > 100 µM; in assay [8] it was 28.9 µM and > 100 µM; in assay [9] it was 25.2 µM and > 100 µM; in assay [10] it was 16.6 µM and > 100 µM. Moreover, the GI50 in [3] was 17 µM and > 100 µM; in assay [4], 14.4 µM and > 100 µM; in assay [5], 14.5 µM and > 100 µM; in assay [6] it was 17.6 µM and > 100 µM; in [7] it was 20.3 µM and > 100 µM; in assay [8], 14.8 µM and > 100 µM.

For `COC1CC2CCC(C)[C@](O)(O2)C(=O)C(=O)N2CCCCC2C(=O)OC(C(C)CC2CCC(O)C(OC)C2)CC(=O)C(C)C=C(C)C(OC(=O)CN(C)C)C(OC)C(=O)C(C)CC(C)/C=C/C=C/C=C\1C` (some centres not stated), the TGI in [1] came to 22 µM; in assay [2], 5.42 µM; in assay [3], 20.3 µM; in assay [4], 20.4 µM; in [5] it was 22.6 µM; in [6], 24.7 µM. Moreover, the TGI in assay [7] worked out at 20.2 µM; in [8] it was 21.6 µM; in assay [9], 25 µM; in [10], 22.6 µM.

Regarding `O=C1/C(=C/c2ccc(Cl)cc2)CN(C(=O)C(Cl)Cl)C/C1=C\c1ccc(Cl)cc1`, the GI50 in [1] was 0.151 µM; in assay [2], 0.0742 µM; in assay [3], 0.292 µM; in assay [4], 0.27 µM; in assay [5], 0.0577 µM; in assay [6] it was 0.183 µM. The GI50 is 0.0714 µM in [7], 0.249 µM in assay [8], 0.297 µM in assay [9] and 0.31 µM in assay [10]. For the same compound, the TGI in assay [1] was 0.407 µM; in assay [2], more than 59.3 µM; in assay [3], 1.03 µM; in [4], 0.961 µM; in assay [5] it was 0.793 µM; in assay [6] it was 0.371 µM. Moreover, the TGI in [7] was 1.43 µM; in [8], 1.01 µM; in assay [9], 1.62 µM; in assay [10], 1.4 µM.

As for `O=C(O)CC1(C(=O)O)CCCCC1`, the TGI in assay [1], in assay [2], in assay [3], in assay [4], in assay [5] and in assay [6] was more than 100 µM throughout. Also, the TGI in assay [7], in assay [8], in assay [9] and in [10] was more than 100 µM each time.

Take `COC(=O)c1c2c(c(C)[n+]([O-])c1C)C(=O)C(NCc1ccc(F)c(F)c1)=CC2=O`: the GI50 was 0.333 µM in assay [1]; 1.72 µM in [2]; 1.84 µM in assay [3]; 1.75 µM in assay [4]; 1.6 µM in assay [5]; 3.17 µM in assay [6]. The GI50 in [7] was 1.15 µM; in [8], 2.81 µM; in assay [9] it was 1.75 µM; in assay [10], 1.57 µM. For the same compound, the TGI was 1.09 µM in assay [1]; 4.57 µM in assay [2]; 4.39 µM in assay [3]; 6.09 µM in [4]; 4.02 µM in assay [5]; 12.7 µM in assay [6]. Moreover, the TGI in assay [7] was found to be 7.61 µM; in assay [8] it was 6.43 µM; in assay [9], 4.33 µM; in [10], 3.75 µM.

For `O=C(O)c1cccc(CC(Br)C(=O)O)c1` (configuration not stated), the TGI in assay [1], in assay [2], in assay [3], in assay [4], in [5] and in [6] was more than 100 µM each time. Also, the TGI in assay [7], in [8], in assay [9] and in [10] was more than 100 µM in each case.

Turning to `CC(C)(O)[C@H]1[C@@H]2OC(=O)[C@H]1[C@]1(O)C[C@H]3OC34C(=O)O[C@H]2[C@@]41C` (some centres not stated) (tested in a mixture with another compound), the TGI in assay [1], in [2], in [3], in assay [4], in assay [5] and in assay [6] was more than 100 µM each time. Further, the TGI in assay [7], in [8], in assay [9] and in [10] was more than 100 µM each time.

In the case of `COC(=O)C#Cc1ccc([N+](=O)[O-])cc1`, the TGI worked out at 2.93 µM in assay [1]; 2.27 µM in [2]; 3.48 µM in assay [3]; 4.08 µM in assay [4]; 1.6 µM in assay [5]; 7.04 µM in assay [6]. Further, the TGI in assay [7] turned out to be 3.23 µM; in assay [8], 4.11 µM; in assay [9], 11.4 µM; in assay [10] it was 3.47 µM.

In the case of `Cc1cccc(N=C2c3cc([N+](=O)[O-])ccc3-c3c2cc([N+](=O)[O-])cc3[N+](=O)[O-])c1`, the GI50 in assay [1] was 2.95 µM; in [2], 3.87 µM; in assay [3], 5.08 µM; in [4] it was 2.43 µM; in [5], 2.8 µM; in assay [6], 2.52 µM. The GI50 in assay [7] was 4.11 µM; in [8], 2.47 µM; in [9], 1.99 µM; in [10], 4.35 µM. Besides, the TGI is more than 100 µM in assay [2]; 19.7 µM in assay [3]; 5 µM in assay [4]; 10.7 µM in [5]; 5.65 µM in assay [6]; 27.6 µM in [7]. Also, the values for the TGI in assay [8], in assay [9] and in assay [10] were 7.17 µM, 4.78 µM and 41.7 µM, respectively.

With `O=C(O)CCC1CCC(c2cc(F)ccc2F)(S(=O)(=O)c2ccc(Cl)cc2)CC1` (configuration not stated), the GI50 is 22.7 µM and > 100 µM in assay [1]; 29 µM and > 100 µM in assay [2]; 15.1 µM and > 68.5 µM in [3]; 30.4 µM and > 100 µM in [4]; 33.7 µM and 47.8 µM in assay [5]; 23.8 µM and > 100 µM in [6]. The GI50 in assay [7] was 30.3 µM and > 100 µM; in [9], 28.6 µM and > 100 µM; in assay [10], 20.7 µM and > 100 µM. Also, the TGI was 63.5 µM and > 100 µM in [1]; more than 100 µM in [2]; more than 100 µM in assay [3]; more than 100 µM in assay [4]; more than 100 µM in [5]; more than 100 µM in [6]. In addition, the TGI in [7] was more than 100 µM; in assay [8], 95.1 µM and > 100 µM; in assay [9], more than 100 µM; in assay [10] it was 79.7 µM and > 100 µM.
